Reference: patent US7708999B2, “Remedies for arthritis” (Kyowa Hakko Kirin Co., Ltd., priority 2001, dated 2010)

T1: FGF-8 (Homo sapiens, UniProt P55075)
T1 construct: purchased R & D
T1 sequence (P55075 23-215 isoform P55075-3 limits assumed): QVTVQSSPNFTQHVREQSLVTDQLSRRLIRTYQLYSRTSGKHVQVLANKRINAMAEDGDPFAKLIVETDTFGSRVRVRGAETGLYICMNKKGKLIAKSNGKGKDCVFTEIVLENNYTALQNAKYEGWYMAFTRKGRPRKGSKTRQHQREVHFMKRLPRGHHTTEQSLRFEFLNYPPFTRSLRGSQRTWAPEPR


Assays:
[1] = system: mouse collagen-induced arthritis model; test: Mouse collagen-induced arthritis model; format: in vivo; conditions: positive control, 0.3 mg/mL, 1 mL per 100 g orally
Description: The mouse collagen-induced arthritis model was prepared in the following manner according to the method of Kamada et al., (Kamada H. et al., Jpn. J. Pharmacol., 70, 169-175, 1996) using DBA/1J mice (male, 7 weeks old, Japan Charles River).
A bovine cartilage-derived type II collagen solution (manufactured by Collagen Gijutsu Kenshu) was mixed with a Freund's complete adjuvant (manufactured by Iatron) under ice cooling to form an emulsion which was adjusted such that the final concentration of the type II collagen became 1.5 mg/mL. The emulsion was intradermally injected in amount of 100 μL at the base of the tail of the mouse for sensitization. Twenty-one days later, the additional immunization was performed in the same manner. One group consisted of 10 mice. Anti-FGF-8 neutralizing antibody KM1334 was dissolved in a saline (manufactured by Otsuka Seiyaku Kojo) to a final concentration of 2 mg/mL, and the solution was intraperitoneally administered to a KM1334 administrated group at a dose of 200 μL for each mouse once a day on days 21, 25, 28, 32, 35 and 39 from the initial sensitization of the mouse collagen-induced arthritis model. […] The change with time of edemas of all limbs in collagen-induced arthritis was evaluated by the scoring from 0 to 4 in each limb to a total of 16 at the maximum score in all limbs. […]

[2] = system: rat adjuvant arthritis model; test: Rat adjuvant arthritis model; format: in vivo
Description: The rat adjuvant arthritis model was performed in the following manner according to the method of Pearson et al. (Pearson CM. et al., Arthritis Rheum., 5, 654-658, 1962) using Lewis rats (female, 8 weeks old, Japan Charles River).
Mycobacterium butyricum (manufactured by Difco) was suspended in a liquid paraffin (manufactured by Wako Pure Chemical Industries, Ltd.) to a final concentration of 6 mg/mL, and sterilized with a autoclave. The resulting solution was intradermally injected into the rat right hind pad in an amount of 100 μL for sensitization. One group consisted of 8 to 10 rats. Anti-FGF-8 neutralizing antibody KM1334 was dissolved in saline to a final concentration of 2 mg/mL. The solution was intraperitoneally administered to a KM1334 administrated group once a day at a dose of 0.5 mL per 100 g of the body weight for each rat on the sensitization day of the rat adjuvant arthritis model and on days 3, 7, 10, 14 and 17 from the sensitization. To saline administrated group, only saline was intraperitoneally administered instead of the anti-FGF-8 neutralizing antibody KM1334 solution. Further, sodium diclofenac, an antiinflammatory agent, was dissolved in a 0.5 w/v % methyl cellulose solution to a final concentration of 0.3 mg/mL, and the solution was orally administered to a sodium diclofenac administrated group as a positive control once a day at a dose of 1 mL per 100 g of the body weight on days 4, 7 to 11 and 14 to 18 from the adjuvant sensitization day. 50 mg of methotrexate® for injection (manufactured by Wyeth Japan) as a metabolic antagonist was dissolved in a 0.5 w/v % methyl cellulose solution to a final concentration of 0.01 mg/mL, and the solution was administered to a methotrexate administrated group in the same manner as in the sodium diclofenac administrated group. Prednisolone (manufactured by Sigma-Aldrich), a steroidal agent, was suspended in a 0.5 w/v % methyl cellulose solution to a final concentration of 0.3 mg/mL, and the suspension was administered to a prednisolone administrated group in the same manner as in the sodium diclofenac administrated group. Further, a 0.5 w/v % methyl cellulose solution alone was orally administered to a solvent administrated group in the same manner. An untreated group was used, and it was not subjected to sensitization with Mycobacterium butyricum and administration of an agent. The volumes of the adjuvant-treated paw and the adjuvant-untreated paw were measured as time goes by using a device for measuring edemas of rat hind paw (TK-101, manufactured by Unicom).
Using urine collected for 24 hours at day 20 and day 21 after the sensitization, the amounts of glycosaminoglycan, deoxypyridinoline, hydroxyproline and creatinine in urine were measured. The amount of glycosaminoglycan in urine was measured by the DMMB method described in Example 1. The amount of hydroxyproline in urine was measured by the method of Ikeda et al. (Ikeda Shingo et al., Tokyo Eiken Nenpo, 36 277-282, 1985). That is, 0.8 mL of hydrochloric acid for amino acid analysis (manufactured by Kanto Kagaku) was added to 0.8 mL of urine to hydrolyze at 110° C. for 15 hours. To 0.5 mL of the hydrolyzed sample was added 2 mL of a 1.2 mol/L sodium hydroxide solution for neutralization. 1 mL of isopropanol was added to 0.5 mL of the neutralized sample, and 1 ml of an oxidant solution was added. The mixture was stirred well, and allowed to stand at room temperature for 5 minutes. […]

FGF-8 = molecular target: T1, FGF-8; test: FGF-8 binding activity by BIAcore 2000, immobilized FGF-8; conditions: antibody 50 μg/mL; FGF-8 immobilized 4498 RU
Description: In order to examine the FGF-8 binding activity of the various anti-FGF-8 neutralizing CDR-grafted antibodies obtained in 4. of Reference Example 2 in more detail, the FGF-8 binding activity of the various anti-FGF-8 neutralizing CDR-grafted antibodies was measured and compared in the following manner using BIAcore2000 (manufactured by BIACORE). The YB2/0 cell-derived anti-FGF-8 neutralizing chimeric antibody KM3334 obtained in 3.(2) of Reference Example 1 was used as a positive control.
HBS-EP (manufactured by BIACORE) was used hereinafter as a sample diluent and a buffer during measurement. First, Sensor Chip CM5 (manufactured by BIACORE) was installed, and FGF-8 (manufactured by R & D) dissolved in 31.25 μg/mL of 10 mmol/L acetate buffer solution (pH 4.0) was immobilized on the surface of the sensor chip by the amine coupling method. The immobilization amount measured by using a resonance signal (RU) as an index was 4498 RU.
60 μL of each of the antibody solutions was added to an FGF-8 immobilized flow cell at a flow rate of 20 μL/min, and the dissociation reaction was then monitored for 3 minutes. After the dissociation reaction, 20 μL of a 10 mmol/L glycine-hydrochloride solution (pH 1.5) was added to the flow cell twice continuously to regenerate the surface of the chip. This cycle was performed with the antibody solution at various concentrations (from 50 to 0.068 μg/mL) to obtain sensor grams at various concentrations. The sensor grams of the respective antibodies were converted to sensor grams of specific reactions by deducing a sensor gram obtained using chimeric antibody KM871 (Shitara K. et al., Cancer Immunol. Immunother., 36, 373-380, 1993) to GD3 as a negative control. […] Accordingly, the binding activity of the various antibodies was compared in terms of the binding [resonance signal (RU)] in the binding reaction. […] The effect of restoring the binding activity was not observed in the 6 amino acid residues of FR of VH.

Row | Molecule | degree of the inhibition of the arthritic score compared with the KM1334 administrated group [1] | Bone destruction score ([2]; Table 2, soft X-ray of calcaneus, adjuvant-untreated paw, day 21, maximum 5, mean ± standard error, oral comparators) | Bone destruction score (% inhibition) ([2]; Table 2, vs solvent group) [%] | inhibition of the increase in paw volume, adjuvant-untreated paw ([2]; day 21, oral, 1 mL per 100 g: sodium diclofenac 0.3 mg/mL, methotrexate 0.01 mg/mL, prednisolone 0.3 mg/mL, vs solvent group) [%] | inhibition of the increase (decrease) in amount of glycosaminoglycan in urine ([2]; urine day 20 to 21, oral comparators vs solvent group, diclofenac and prednisolone not significant) [%] | inhibition of the increase (decrease) in amount of deoxypyridinoline in urine ([2]; urine day 20 to 21, oral comparators vs solvent group, methotrexate and prednisolone not significant) [%] | binding reaction [resonance signal (RU)] (FGF-8)
1 | O=C(O)Cc1ccccc1Nc1c(Cl)cccc1Cl [sodium diclofenac] | the same | 3.1 ± 0.6 | 33 | 45 | 40 | 88 | –
2 | HV0LV0: YB2/0 cell-derived anti-FGF-8 neutralizing CDR-grafted antibody, VH HV.0 (SEQ ID NO. 18), VL LV.0 (SEQ ID NO. 19) (antibody, V domains shown, HV.0, a designed amino acid sequence of VH of an anti-FGF-8 CDR-grafted neutralizing antibody; LV.0, a designed amino acid sequence of VL of an anti-FGF-8 CDR-grafted neutralizing antibody) VH: QVQLVQSGAEVKKPGASVKVSCKASGYTFTDYYLNWVRQAPGQGLEWMGEIDPGSDSIYYNENLEGRVTITADTSTSTAYMELSSLRSEDTAVYYCARYGYSRYDVRFVYWGQGTLVTVSS VL: DIVMTQSPLSLPVTPGEPASISCRSSQSLVHSNGRTYLEWYLQKPGQSPQLLIYKVSNRISGVPDRFSGSGSGTDFTLKISRVEAEDVGVYYCFQGSHVPYTFGQGTKVEIK | – | – | – | – | – | – | slightly low in comparison to KM3334 and HV0LV6
3 | HV6LV6: YB2/0 cell-derived anti-FGF-8 neutralizing CDR-grafted antibody, VH HV.6 (SEQ ID NO. 20), VL LV.6 (SEQ ID NO. 21) (antibody, V domains shown, HV.6, a designed amino acid sequence of VH of an anti-FGF-8 CDR-grafted neutralizing antibody; LV.6, a designed amino acid sequence of VL of an anti-FGF-8 CDR-grafted neutralizing antibody) VH: QVQLVQSGAEVARPGASVKVSCKASGYTFTDYYLNWVRQRSGQGLEWIGEIDPGSDSIYYNENLEGRVTITADTSTSTAYMELSSLRSEDTAVYFCARYGYSRYDVRFVYWGQGTLVTVSS VL: DVVMTQSPLSLPVSLGEPASISCRSSQSLVHSNGRTYLEWYLQKPGQSPKVLIYKVSNRISGVPDRFSGSGSGTDFTLKISRVEAEDVGVYFCFQGSHVPYTFGQGTKVEIK | – | – | – | – | – | – | slightly low in comparison to KM3334 and HV0LV6
